Results from US20230355602A1, “TREATMENT AND/OR PREVENTION OF A VIRAL INFECTION” (priority 2020, published 2023).
pEC50, pIC50: −log10 of the molar value.

Experiments:
Zika virus = Zika virus assay in Huh7 cells (viral titer); type: cell-based
in vitro [1] = type: cell-based; details: African green monkey
Protocol: Vero E6 cells were treated with the above compounds ata range of concentrations (0.0001, 0.001, 0.01, 1,10, 30, 50, and 100 μM) and incubated for 4 days. After incubation, the media was removed from the plates and washed once with PBS before addition of alamarBlue Cell Viability Reagent (Thermo Fisher Scientific) diluted 1:10 in media with 2% FCS. Fluorescence was detected after 2.5 h incubation at an excitation wavelength of 570 nm and an emission wavelength of 600 nm on an Infinite 200 Pro multiplate reader (Tecan). Data obtained from compound-treated cells and vehicle-treated cells were normalised against those obtained from untreated cells.

A549 cells = assay: in vitro; type: cell-based; details: human, 48 h
Protocol: (§1) 12k cells (A549) per well in a 96-well plate. The compounds are added on the next day. 48 hrs treatment. 3-fold serial dilution for ASLAN 003 starting from 10 μM.

in vitro [2] = type: cell-based; details: human
Protocol: as §1

CHIKV = assay: Chikungunya virus assay in Huh7 cells (viral titer); type: cell-based
SARS-CoV-2-Nluc viruses = assay: microbe, parasite or virus in culture; type: cell-based
clinical = details: human, in vivo
[3] = human, in vivo
[4] = system: SARS-CoV-2 (hCoV-19/Singapore/10/2020); assay: Dose-dependent inhibition assay with plaque assay titration in Vero E6 cells; type: cell-based
[5] = system: Dengue virus (serotypes 1, 2, 3 or 4); assay: Dengue virus assay in Huh7 cells (viral titer); type: cell-based
[6] = Severe acute respiratory syndrome coronavirus 2, Vero C1008, 96 h

COc1cccc(-c2cc(F)c(Nc3ncccc3C(=O)O)c(F)c2)c1 [ASLAN003, 2-(3,5-difluoro-3′-methoxybiphenyl-4-ylamino) nicotinic acid]
efficacy (potency) against Zika (Zika virus): sub-micromolar potency
CC50 at 4 days (in vitro [1]): 87200 nM
pIC50 (A549 cells): < 5.00
change in A549 cell viability (A549 cells): no change in A549 cell viability
IC50 at 48 h (in vitro [2]): > 10000 nM
efficacy (potency) against Chikugunya (CHIKV): sub-micromolar potency
efficacy (potency) against SARS-CoV-2 (SARS-CoV-2-Nluc viruses): sub-micromolar potency
IC50 (SARS-CoV-2-Nluc viruses; Severe acute respiratory syndrome coronavirus 2, 48 h, read-out: SARS-COV-2 Reporter Assay (IC50, μM)): 0.812 µM
half-life (clinical): 18 h
PK profiles in Asian and Caucasian patients [3]: equivalent
safety and tolerability, liver enzyme rises [3]: safe and well-tolerated with no evidence of significant liver enzyme rises
time until full exposure is achieved [3]: ≤ 24 h
pEC50 [4, 6]: 8.85
EC90 [4, 6]: 3.88 nM
inhibition of SARS-CoV-2 in Vero E6 cells (viral titre) ([4]; treated post virus infection, 0.0001 to 100 μM): Dosage dependent inhibition
efficacy (potency) against Dengue [5]: sub-micromolar potency
